Molecular target: T1, HMG-CoA synthase (Rattus norvegicus, UniProt P17425)
T1 construct: The livers from male Charles River CD rats (225-350 g) were homogenized; from tissue; host or cells: rat liver (male Charles River CD rats), 100,000×g supernatant, ammonium sulfate precipitate, DEAE-52 fraction
T1 sequence (P17425 1-520): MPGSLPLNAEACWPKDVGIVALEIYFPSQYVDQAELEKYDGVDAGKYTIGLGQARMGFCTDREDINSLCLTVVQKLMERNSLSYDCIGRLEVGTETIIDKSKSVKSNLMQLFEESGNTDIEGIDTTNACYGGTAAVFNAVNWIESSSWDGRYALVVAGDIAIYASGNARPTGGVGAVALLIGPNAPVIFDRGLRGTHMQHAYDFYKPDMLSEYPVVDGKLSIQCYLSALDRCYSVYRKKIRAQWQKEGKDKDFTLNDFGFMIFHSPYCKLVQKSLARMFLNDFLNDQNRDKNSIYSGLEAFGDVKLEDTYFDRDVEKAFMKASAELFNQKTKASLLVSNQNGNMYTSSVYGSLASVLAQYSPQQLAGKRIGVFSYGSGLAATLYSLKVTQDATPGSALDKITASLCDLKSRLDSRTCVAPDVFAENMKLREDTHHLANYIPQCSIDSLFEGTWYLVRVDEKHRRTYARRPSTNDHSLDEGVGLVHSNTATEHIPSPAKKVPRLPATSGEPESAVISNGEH
Experiment: HMG-CoA synthase inhibition assay
Format: biochemical
Conditions: Table I; n is 1, R3 is H
Procedure: The intrinsic HMG-CoA synthase inhibition activity of the compounds of this invention is measured by the standard in vitro protocol described below:
The livers from male Charles River CD rats (225-350 g) were homogenized in 0.25M sucrose which was adjusted with phenylmethylsulfonylfluoride (PMSF) and N-p-tosyl-l-lysine chloromethyl ketone (TLCK) so that the final concentration of each was […], respectively. The homogenate was centrifuged at 15,000×g for 20 minutes, the supernatant filtered through a fine nylon screen to remove most of the fat layer and recentrifuged at 100,000×g for 1 hour. This supernatant was removed and 1M potassium phosphate, dithiothreitol (DTT) and ethylene glycolbis(β-aminoethyl ether)-N,N,N',N'-tetraacetic acid (EGTA) added to give a final concentration of 0.1M (pH 7.2), 0.5 mM and 0.1 mM, respectively. Solid ammonium sulfate was added to 50% saturation to the protein solution, it was centrifuged at 15,000×g and the supernatant discarded. This precipitated protein could be stored at -70° C. for at least one month with very little loss of activity. The ammonium sulfate precipitate was dissolved in an minimal amount of 0.06M potassium phosphate buffer (pH 7.2) containing 0.5 mM dithiothreitol and 0.1 mM EGTA (referred to as 0.06M phosphate buffer) and dialyzed overnight against 2 liters of the same buffer to remove the ammonium sulfate and to inactivate HMG-CoA lyase [Clinkenbeard, et al., J. Biol. Chem. 250, 3108-3116(1975)].
The dialyzed extract was added to a column of DEAE-52 (Whatman) which had been equilibrated with 0.06M phosphate buffer (10 mg of protein to 1 ml bed volume of the resin). The DEAE-cellulose was eluted with 0.06M phosphate buffer until the optical density at 280 nm was essentially zero. This fraction contained the β-ketoacetyl-CoA thiolase activity. The HMG-CoA synthase was eluted from the column with 0.1M phosphate buffer (pH 7.2) containing 0.5 mM DTT and 0.1 mM EGTA, and was virtually free of all thiolase activity. The protein was precipitated by the addition of ammonium sulfate to give 50% saturation. This solution was stirred for 10 minutes at 4° C. and the precipitate collected by centrifugation at 15,000 rpm for 10 minutes. The supernatant was discarded and the precipitate dissolved in a minimum of 0.06M phosphate buffer, pH 7.2 (about 10 ml) and the enzyme stored at -80° C.
HMG-CoA Synthase Inhibition Assay
Enzyme protein (ca. 24 mg) was added to a solution containing […] (pH 8.0), 11.7 μM MgCl2, 1.17 μM ethylenediaminetetraacetic acid (EDTA), 0.58 μM dithiothreitol, and the indicated concentrations of the test compound (added as a 2 mg/ml solution in dimethylsulfoxide). The incubation took place in a volume of 0.085 ml at 30° in a shaking water bath. After 5 minutes, […] of a solution containing acetoacetyl-CoA and 0.1 μCi of 1-[^14 C]-acetyl-CoA was added to give a final concentrations of 0.1 and 0.4 μM, respectively. The incubation was continued for 10 more minutes and the reaction stopped by the addition of […] of the assay mixture to 0.2 ml of 6N HCl in a glass scintillation vial. The vial was heated for 1 hour at 120° after which time 0.2 ml more of 6N HCl was again added to each vial and the heating continued for another hour. Following this, 1.0 ml of 0.9% saline was added to each vial and finally 10 ml of scintillation liquid. Radioactivity was determined in a Packard Tri-Carb liquid scintillation counter.
Percent inhibition is calculated by the formula: [formula]
IC50 values were determined by plotting the log of the concentration of the test compound verses the percentage inhibition and fitting a straight line to the resulting data by using the least squares method.

IC50 [nM]	Compound
70	Cc1ccc(S(=O)(=O)N2C(=O)C[C@H]2CSc2ccccc2)cc1 [Table I i), (4S)-4-Thiophenoxymethyl-N-toluenesulfonyl-2-azetidinone]
120	Cc1ccc(S(=O)(=O)N2C(=O)C[C@H]2C[S+]([O-])c2ccccc2)cc1 (stereo partly drawn) [Table I ii)]
120	Cc1ccc(S(=O)(=O)N2C(=O)C[C@H]2CS(=O)(=O)c2ccccc2)cc1 [Table I iii), (4S)-4-Phenylsulfonymethyl-N-toluenesulfonyl-2-azetidinone]
46	COC(=O)c1ccc(OC[C@@H]2CC(=O)N2S(=O)(=O)c2ccc(C)cc2)cc1 [Table I iv), (4S)-4-p-Methoxycarbonylphenoxymethyl-N-toluenesulfonyl-2-azetidinone]
820	Cc1ccc(S(=O)(=O)N2C(=O)C[C@H]2CI)cc1 [Table I v)]

Same assay, conditions: Table II; n is 1, R3 is C1-5 alkyl

IC50 [nM]	Compound
120	CC[C@@H]1C(=O)N(S(=O)(=O)c2ccc(C)cc2)[C@@H]1CSc1ccccc1 (relative stereo) [Table II i)]
67	CC[C@@H]1C(=O)N(S(=O)(=O)c2ccc(C)cc2)[C@@H]1COC (relative stereo) [Table II ii), (±)-cis-3-Ethyl-4-methoxymethyl-N-toluenesulfonyl-2-azetidinone]
60	CC[C@@H]1C(=O)N(S(=O)(=O)c2ccc(C)cc2)[C@@H]1CF (relative stereo) [Table II iii), (±)-cis-3-Ethyl-4-fluoromethyl-N-toluenesulfonyl-2-azetidinone]

Same assay, conditions: Table III; n is 2, R3 is H

IC50 [nM]	Compound
66	COC(=O)c1ccc(OCCC2CC(=O)N2S(=O)(=O)c2ccc(C)cc2)cc1 (racemic) [Table III i), (±)-4-(2-p-Methoxycarbonylphenoxy)ethyl-N-toluenesulfonyl-2-azetidinone]
90	Cc1ccc(S(=O)(=O)N2C(=O)CC2CCOCc2ccccc2)cc1 (racemic) [Table III ii), (±)-4-(2-Benzyloxy)ethyl-N-toluenesulfonyl-2-azetidinone]

Compound	IC50 [nM]
Cc1ccc(S(=O)(=O)N2C(=O)CC2CCOC(c2ccccc2)c2ccccc2)cc1 (racemic) [Table III iii), (±)-4-(2-Diphenylmethoxy)ethyl-N-toluenesulfonyl-2-azetidinone]	61

Same assay, conditions: Table IV; n is 2, R3 is CH3CH2 or CH3OCH2

IC50 [nM]	Compound
65	CC[C@@H]1C(=O)N(S(=O)(=O)c2ccc(C)cc2)[C@@H]1CCOc1ccc(C(=O)OC)cc1 (relative stereo) [Table IV i), (±)-cis-3-Ethyl-4-(2-p-methoxycarbonylphenoxy)ethyl-N-toluenesulfonyl-2-azetidinone]
1400	COC[C@H]1C(=O)N(S(=O)(=O)c2ccc(C)cc2)[C@@H]1CCOc1ccc(C(=O)OC)cc1 (relative stereo) [Table IV ii)]
640	CC[C@@H]1C(=O)N(S(=O)(=O)c2ccc(C)cc2)[C@@H]1CCS(=O)(=O)c1ccccc1 (relative stereo) [Table IV iii), (±)-3-Ethyl-4-(2-phenylsulfonyl)ethyl-N-toluenesulfonyl-2-azetidinone]

Same assay, conditions: Table V; n is 3, R3 is H

IC50 [nM]	Compound
190	COC(=O)c1ccc(OCCCC2CC(=O)N2S(=O)(=O)c2ccc(C)cc2)cc1 (stereo not drawn) [Table V i)]
140	Cc1ccc(S(=O)(=O)N2C(=O)CC2CCCOc2ccccc2)cc1 (stereo not drawn) [Table V ii)]
130	Cc1ccc(S(=O)(=O)N2C(=O)CC2CCCBr)cc1 (stereo not drawn) [Table V iii)]

Same assay, conditions: Table VI; n is 4

IC50 [nM]	Compound
3600	COCC1C(=O)N(S(=O)(=O)c2ccc(C)cc2)C1CCCCC(C)CC(C)=CC(C)=CC(=O)OC [Table VI i), (3R,4R,5'R)-(E,E)-3-Methoxymethyl-4-(10'-methoxycarbonyl-5',7',9'-trimethyl-7',9'-decadienyl)-N-toluensulfonyl-2-azetidinone]

— patent US5120729A, “Beta-lactams as antihypercholesterolemics” (Merck & Co., Inc., priority 1990, dated 1992)
